Converted amounts (≈) assume the structure as drawn. Like-named read-outs stand apart in the source and are kept apart here.
Tests used:
[1] = system: Staphylococcus aureus 209P; assay: MIC, serial dilution on Mueller Hinton agar; format: cell-based; settings: Staphylococcus aureus 209P; Mueller Hinton agar, 37°C, 18 hours; read-out: MIC.
[2] = system: Staphylococcus aureus Ap01; assay: MIC, serial dilution on Mueller Hinton agar; format: cell-based
Bacillus subtilis PCI219 = assay: MIC, serial dilution on Mueller Hinton agar; format: cell-based; settings: Bacillus subtilis PCI219; Mueller Hinton agar, 37°C, 18 hours; read-out: MIC.
[3] = system: Corynebacterium bovis 1810; assay: MIC, serial dilution on Mueller Hinton agar; format: cell-based; settings: Corynebacterium bovis 1810; Mueller Hinton agar, 37°C, 18 hours; read-out: MIC.
Escherichia coli K-12 = assay: MIC, serial dilution on Mueller Hinton agar; format: cell-based; settings: K12; Escherichia coli K-12; Mueller Hinton agar, 37°C, 18 hours; read-out: MIC.
Escherichia coli K-12 R5 = assay: MIC, serial dilution on Mueller Hinton agar; format: cell-based; settings: K12R5, 18 h
[4] = system: Escherichia coli K-12 ML 1629; assay: MIC, serial dilution on Mueller Hinton agar; format: cell-based; settings: K12ML1629, Escherichia coli K-12 ML 1629, resistance mechanism APH(3')-I, 37°C, 18 hours
[5] = system: Escherichia coli K-12 LA 290 R55; assay: MIC, serial dilution on Mueller Hinton agar; format: cell-based; settings: for MIC: Escherichia coli, K12LA290R55, 18 h
Escherichia coli JR225 = assay: microbe, parasite or virus in culture; format: cell-based; settings: for MIC: Escherichia coli, JR225, 18 h
[6] = system: Escherichia coli JR66/W677; assay: microbe, parasite or virus in culture; format: cell-based; settings: JR66/W677, 18 h
Mycobacterium 607 = assay: MIC, serial dilution on Mueller Hinton agar; format: cell-based
[7] = system: Klebsiella pneumoniae 22#3038; assay: MIC, serial dilution on Mueller Hinton agar; format: cell-based; settings: Klebsiella pneumoniae 22#3038, resistance mechanism APH(3')-II, ANT(2"), 37°C, 18 hours
Excerpt: The antibacterial spectra so determined of the new compounds No. 1 to No. 13 (each in the form of the free base) of this invention are as shown in Table 1 below.

Proteus rettgeri GN 311 = assay: MIC, serial dilution on Mueller Hinton agar; format: cell-based; settings: Providencia rettgeri, GN311; Proteus rettgeri GN 311; Mueller Hinton agar, 37°C, 18 hours; read-out: MIC.
Serratia marcescens = assay: MIC, serial dilution on Mueller Hinton agar; format: cell-based
Providencia sp. Pv 16 = assay: MIC, serial dilution on Mueller Hinton agar; format: cell-based
[8] = system: Pseudomonas aeruginosa A3; assay: MIC, serial dilution on Mueller Hinton agar; format: cell-based; settings: Pseudomonas aeruginosa A3; Mueller Hinton agar, 37°C, 18 hours; read-out: MIC.
[9] = system: Pseudomonas aeruginosa GN 315; assay: MIC, serial dilution on Mueller Hinton agar; format: cell-based
in vivo = settings: mouse, iv
[10] = Staphylococcus aureus Ap01, resistance mechanism ANT(4'), Mueller Hinton agar, 37°C, 18 hours, read-out: MIC.
[11] = Mueller Hinton agar, 37°C, 18 hours, read-out: MIC.
[12] = SP.PV16, Providencia sp. Pv 16, resistance mechanism AAC(2'), Mueller Hinton agar, 37°C, 18 hours, read-out: MIC.
[13] = GN315, Pseudomonas aeruginosa GN 315, resistance mechanism AAC(6'), Mueller Hinton agar, 37°C, 18 hours, read-out: MIC.
[14] = Mycobacterium 607, Mueller Hinton agar, 37°C, incubated for 40 hours, read-out: MIC.
[15] = Pseudomonas aeruginosa, GN315, 18 h

| Compound | MIC [1] [µg/mL] | MIC [2, 10] [µg/mL] | MIC (Bacillus subtilis PCI219) [µg/mL] | MIC [3] [µg/mL] | MIC (Escherichia coli K-12) [µg/mL] | MIC (Escherichia coli K-12 R5) [µg/mL] | MIC [4] [µg/mL] | MIC [5] [µg/mL] | MIC (Escherichia coli JR225) [µg/mL] | MIC [6] [µg/mL] | MIC [7] [µg/mL] | MIC (Proteus rettgeri GN 311) [µg/mL] | MIC (Serratia marcescens; [11]) [µg/mL] | MIC (Providencia sp. Pv 16; [12]) [µg/mL] | MIC [8] [µg/mL] | MIC [9, 13] [µg/mL] | MIC (Mycobacterium 607; [14]) [µg/mL] | MIC (Serratia marcescens; 18 h) [µg/mL] | MIC [9, 15] [µg/mL] | further results |
| --- | --- | --- | --- | --- | --- | --- | --- | --- | --- | --- | --- | --- | --- | --- | --- | --- | --- | --- | --- | --- |
| NCC[C@H](O)C(=O)N[C@@H]1C[C@H](N)[C@@H](O[C@H]2O[C@H](CN)[C@@H](O)[C@H](O)[C@H]2N)[C@H](F)[C@H]1O[C@H]1O[C@H](CO)[C@@H](O)[C@H](N)[C@H]1O [Compound No. 6, 1-N-(4-Amino-2-(S)-hydroxybutyryl)-5-deoxy-5-fluorokanamycin B] | 0.39 (≈ 0.665 µM) | 6.25 (≈ 10.7 µM) | 0.39 (≈ 0.665 µM) | < 0.2 | < 0.2 | 12.5 (≈ 21.3 µM) | 0.78 (≈ 1.33 µM) | 0.78 (≈ 1.33 µM) | < 0.2 | 0.78 (≈ 1.33 µM) | 3.12 (≈ 5.32 µM) | < 0.2 | 1.56 (≈ 2.66 µM) | 0.78 (≈ 1.33 µM) | < 0.2 | 6.25 (≈ 10.7 µM) | – | – | – | MIC (Mycobacterium 607; Mycobacterium, 607, 40 h): 12.5 µg/mL (≈ 21.3 µM) |
| NC[C@@H]1CC[C@@H](N)[C@@H](O[C@H]2[C@H](O)[C@@H](O[C@H]3O[C@H](CO)[C@@H](O)[C@H](N)[C@H]3O)[C@H](N)C[C@@H]2N)O1 [DKB, 3',4'-dideoxykanamycin B, reference compound] | 0.39 (≈ 0.864 µM) | – | 0.39 (≈ 0.864 µM) | – | 0.2 (≈ 0.443 µM) | 50 (≈ 111 µM) | – | 50 (≈ 111 µM) | 100 (≈ 221 µM) | – | 50 (≈ 111 µM) | 0.2 (≈ 0.443 µM) | – | – | 0.2 (≈ 0.443 µM) | – | 1.56 (≈ 3.45 µM) | – | – | – |
| NC[C@H](O)C(=O)N[C@@H]1C[C@H](N)[C@@H](O[C@H]2O[C@H](CN)[C@@H](O)C[C@H]2N)[C@H](F)[C@H]1O[C@H]1O[C@H](CO)[C@@H](O)[C@H](N)[C@H]1O [Compound No. 8, 1-N-(3-Amino-2-(S)-hydroxypropionyl)-5,3'-dideoxy-5-fluorokanamycin B] | 0.39 (≈ 0.701 µM) | 0.78 (≈ 1.4 µM) | 0.2 (≈ 0.359 µM) | < 0.2 | 0.2 (≈ 0.359 µM) | 6.25 (≈ 11.2 µM) | 0.78 (≈ 1.4 µM) | 1.56 (≈ 2.8 µM) | 0.78 (≈ 1.4 µM) | 0.78 (≈ 1.4 µM) | 1.56 (≈ 2.8 µM) | 0.39 (≈ 0.701 µM) | – | 0.78 (≈ 1.4 µM) | 0.39 (≈ 0.701 µM) | – | 0.78 (≈ 1.4 µM) | 3.12 (≈ 5.61 µM) | 6.25 (≈ 11.2 µM) | – |
| NCC[C@H](O)C(=O)N[C@@H]1C[C@H](N)[C@@H](O[C@H]2O[C@H](CN)CC[C@H]2N)[C@H](O)[C@H]1O[C@H]1O[C@H](CO)[C@@H](O)[C@H](N)[C@H]1O [habekacin, 1-N-(4-amino-2-(S)-hydroxybutyryl)-3',4'-dideoxykanamycin B, reference compound] | – | – | – | – | – | – | – | – | – | – | – | – | – | – | – | – | – | – | – | LD50 (in vivo): 90 mg/kg |
| NC[C@H]1O[C@H](O[C@H]2[C@H](F)[C@@H](O[C@H]3O[C@H](CO)[C@@H](O)[C@H](N)[C@H]3O)[C@H](N)C[C@@H]2N)[C@H](N)[C@@H](O)[C@@H]1O [Compound No. 1, 5-Deoxy-5-fluorokanamycin B] | 0.39 (≈ 0.803 µM) | 25 (≈ 51.5 µM) | 0.39 (≈ 0.803 µM) | 0.78 (≈ 1.61 µM) | 0.78 (≈ 1.61 µM) | 100 (≈ 206 µM) | > 100 | 3.12 (≈ 6.43 µM) | 0.78 (≈ 1.61 µM) | > 100 | > 100 | < 0.2 | 6.25 (≈ 12.9 µM) | – | 1.56 (≈ 3.21 µM) | 100 (≈ 206 µM) | 1.56 (≈ 3.21 µM) | – | – | antibacterial activity ([5]; Escherichia coli K-12 LA290 R55, resistant strain having the enzyme for adenylating the 2"-hydroxyl group of kanamycin B): significantly active; antibacterial activity (Escherichia coli JR225; Escherichia coli JR 225, resistant strain having the enzyme for acetylating the 3-hydroxyl group of kanamycin B): significantly active; MIC (Providencia sp. Pv 16; Providencia, SP.PV16, 18 h): 3.12 µg/mL (≈ 6.43 µM); antibacterial activity (Providencia sp. Pv 16; Providensia Pv 16, resistant strain having the enzyme for acetylating the 2'-amino group of kanamycin B): significantly active |
| NCC(O)C(=O)N[C@@H]1C[C@H](N)[C@@H](O[C@H]2O[C@H](CN)[C@@H](O)C[C@H]2N)[C@H](F)[C@H]1O[C@H]1O[C@H](CO)[C@@H](O)[C@H](N)[C@H]1O (stereo partly drawn) [Compound No. 7, 1-N-(3-Amino-2-(RS)-hydroxypropionyl)-5,3'-dideoxy-5-fluorokanamycin B] | 0.39 (≈ 0.701 µM) | – | 0.2 (≈ 0.359 µM) | < 0.2 | 0.2 (≈ 0.359 µM) | 6.25 (≈ 11.2 µM) | 0.78 (≈ 1.4 µM) | 0.78 (≈ 1.4 µM) | 0.78 (≈ 1.4 µM) | 1.56 (≈ 2.8 µM) | 3.12 (≈ 5.61 µM) | 0.78 (≈ 1.4 µM) | – | 0.78 (≈ 1.4 µM) | 0.39 (≈ 0.701 µM) | – | 0.78 (≈ 1.4 µM) | 3.12 (≈ 5.61 µM) | 6.25 (≈ 11.2 µM) | MIC ([2]; Staphylococcus aureus, AP01, 18 h): 1.56 µg/mL (≈ 2.8 µM) |
